Consider eight compounds from PubChem BioAssay (NCI).

Assay in all cases: NCI-60 cell line screen, 48 h
Experiment [1] relates to A549 NSCLC.
In experiment [2] the test system is ACHN renal.
Experiment [3] has as its system COLO 205 colon.
Experiment [4] relates to HCC-2998 colon.
For experiment [5], the system named is HCT-116 colon.
Experiment [6] relates to HL-60(TB) leukemia.
The test system of experiment [7] is HOP-62 NSCLC.
Experiment [8] deals with LOX IMVI melanoma.
Experiment [9] deals with MCF7 breast.
The subject of experiment [10] is MDA-N.
The test system of experiment [11] is NCI-H23 lung.
Experiment [12] has as its system OVCAR-5 ovarian.
For experiment [13], the system named is OVCAR-8 ovarian.
Experiment [14] has as its system SK-MEL-5 melanoma.
Experiment [15] deals with SR leukemia.
Experiment [16] concerns SW-620 colon.
In experiment [17] the test system is TK-10 renal.

SMILES strings stand for the structures. Values joined by “and” are separate entries in the source; they are usually repeats but may differ in a detail not shown here. Identical values can stand only once.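 Following 48 hours of exposure in 96-well plates, responses at five concentrations were used to interpolate endpoints linearly. Abbreviation: GI50, concentration required for 50% inhibition of growth. Definition used: TGI = concentration required for complete inhibition of growth.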

On to `CC(C)(C)OC(=O)/N=C/c1c(O)c2ccccc2oc1=O`, for which the TGI in experiment [1], in experiment [2], in [3], in experiment [4], in [5] and in experiment [6] was > 100 µM each time. Besides, the TGI in experiment [7], in [8], in [9], in experiment [10], in experiment [11] and in experiment [12] was > 100 µM in each case. Further, the TGI is > 100 µM in [13]; > 100 µM in experiment [14]; > 100 µM in [15]; > 100 µM in experiment [16]; 66.7 µM in experiment [17].
As for `Cc1nc2ccc(S(=O)(=O)O)cc2c(=O)n1-c1ccc(C(=O)NN2C(=O)C(Cl)C2c2cccs2)cc1` (configuration not stated), the TGI in experiment [1] is > 100 µM; in [2], > 100 µM; in experiment [3], > 100 µM; in [4] it was > 100 µM; in experiment [5] it was > 100 µM; in experiment [6] it was 51.8 µM. In addition, the TGI in [7] is 60.1 µM; in [8] it was > 100 µM; in [9], > 100 µM; in experiment [10], 80.2 µM; in experiment [11], > 100 µM; in experiment [12], > 100 µM. Also, the TGI in experiment [13], in experiment [14], in experiment [15], in [16] and in [17] was > 100 µM each time.
Turning to `COc1cc(S(=O)(=O)Nc2nc(-c3ccc(N=Cc4ccccc4O)cc3)cs2)ccc1Cl`, the TGI is > 100 µM in [1]; > 100 µM in [2]; 61.8 µM in [3]; > 100 µM in experiment [4]; > 100 µM in experiment [5]; > 100 µM in experiment [6]. Further, the TGI in experiment [7], in experiment [8], in [9], in experiment [10], in experiment [11] and in experiment [12] was > 100 µM throughout. For the same compound, the TGI was > 100 µM in [13]; 71.5 µM in experiment [14]; > 100 µM in experiment [15]; > 100 µM in experiment [16]; > 100 µM in experiment [17].
`Nc1ccc2c(=S)c3ccccc3[nH]c2c1`: the TGI in [1], in [2], in [3], in [4], in experiment [5] and in [6] was > 100 µM each time. Also, the TGI in experiment [7] was > 73 µM; in [8], > 100 µM; in experiment [9], > 100 µM; in experiment [10] it was > 100 µM; in experiment [11] it was > 100 µM; in experiment [12], > 100 µM. The TGI in experiment [13], in experiment [14], in [15], in experiment [16] and in experiment [17] was > 100 µM throughout.
Turning to `NC(CCC(=O)O)C(=O)NC(Cc1ccc(N(CCCl)CCCl)cc1)C(=O)O` (configuration not stated), the TGI in experiment [1], in [2], in experiment [3], in [4], in [5] and in experiment [6] was > 100 µM in each case. Also, the TGI in experiment [7], in experiment [8], in [9], in [10], in experiment [11] and in experiment [12] was > 100 µM throughout. For the same compound, the TGI in experiment [13], in experiment [14], in [15], in experiment [16] and in experiment [17] was > 100 µM each time. Also, the GI50 in [15] is > 100 µM and 28.5 µM.
Regarding `COc1ccc(NC(=S)c2ccc([N+](=O)[O-])o2)cc1`, the TGI in experiment [1] is 11.1 µM; in [2], 5.42 µM; in experiment [3] it was 2.75 µM; in experiment [4], 3 µM; in experiment [5], 3.12 µM; in experiment [6], 5.89 µM. Also, the TGI is 8.26 µM in experiment [7]; 4.33 µM in [8]; 4.42 µM in experiment [9]; 6.11 µM in experiment [10]; 5.52 µM in [11]; 9.53 µM in experiment [12]. Also, the TGI in experiment [13] turned out to be 13.1 µM; in experiment [14] it was 13.1 µM; in experiment [15] it was 8.63 µM; in experiment [16], 2.9 µM; in experiment [17] it was 9.84 µM.
Take `CC1=C(C(=O)NNC(=O)C[N+](C)(C)C)CC(C(=O)NNC(=O)C[N+](C)(C)C)=C(C)N1`: the TGI in [1], in experiment [2], in experiment [3], in experiment [4], in [5] and in experiment [6] was > 100 µM in each case. The TGI in experiment [7], in experiment [8], in experiment [9], in [10], in [11] and in experiment [12] was > 100 µM each time. Also, the TGI in [13], in [14], in experiment [15], in experiment [16] and in [17] was > 100 µM throughout.
With `Nc1nccc(NCC2(CO)CC(CCc3ccccc3)C2)n1` (configuration not stated), the TGI in [1] is 39.7 µM; in experiment [2], 32.6 µM; in [3], 29.5 µM; in [4], 35.9 µM; in experiment [5], 23 µM; in experiment [6], 34.4 µM. The TGI turned out to be 38 µM in experiment [7]; 34.4 µM in experiment [8]; 22.2 µM in experiment [9]; 31.4 µM in [10]; 41.4 µM in experiment [11]; 34.2 µM in experiment [12]. Also, the TGI in experiment [13] was determined as 69.4 µM; in experiment [14], 16.9 µM; in [15], 52.6 µM; in experiment [16], 43.7 µM; in experiment [17], 25.5 µM.
